Experimental data from patent US11701316B2, “Synergistic anti-inflammatory compositions” (The Procter & Gamble Company, priority 2020, dated 2023).
Where “and” joins values, the source holds several entries; their conditions need not be identical. Identical values can stand only once.

How the values were obtained:
[1] = system: PGE2 release from keratinocytes; test: Prostaglandin E2 (PGE2) assay in UVB-stressed TERT keratinocytes, normalized to ATP activity; type: cell-based, human; conditions: tKC
Text: Inhibiting the Cell's Inflammation Response to a Stressor—Prostaglandin E2 (“PGE2”) Assay.
PGE2 is a hormone-like substance that is known to participate in modulation of inflammation. Cellular inflammation is associated with a variety of hair, skin and scalp conditions, and thus inhibiting PGE2 activation vis-à-vis cellular inflammation may help treat these types of hair, skin and scalp conditions.
TERT keratinocytes (“tKC”-tKCs are human keratinocytes which have been transfected with the human telomerase reverse transcriptase gene to immortalize the cells) are obtained from Jerry Shay, University of Texas, Southwestern and plated at 40,000 cells/well into 24-well plates in 1 ml/well volume. EpiLife Medium (Life Technologies cat # MEPICFPRF500) supplemented with keratinocyte growth supplement (Life technologies cat #S-001-5) is used as the assay media. The cells are grown to confluence/near confluence, (typically 24 hours after plating 40,000 cells/well in 24 well plate) and then subjected to 15 mJ/cm^2 UVB-stress (typically […] in BioSun). The test compositions (strobilurins, salicylic acid, strobilurins+salicylic acid, and positive control 10 uM idebenone) are added to replace the medium (EpiLife Medium with 0.1% final concentration of DMSO-briefly, 1000× stocks of actives and combinations made in 100% DMSO and diluted into Epilife media 1 to 1000), and the plates are incubated for 18-24 hours. The supernatant is removed from each well, and the cells are rinsed with 2 ml/well medium (without supplements). A Cell Titer-Glo assay (Promega cat # G7571; Madison Wis.) is used to measure ATP activity, is conducted on the cells for normalization. The supernatant is tested in a PGE2 assay (Prostaglandin E2 Assay kit from Cisbio Bioassays cat# 62P2APEB) according to the manufacturer's instructions. The PGE2 results are normalized to ATP activity. The PGE2 quantitation (pg/mL) from the supernatant is divided by the normalization factor (treatment ATP/control ATP).
Example Calculation to Compute PGE2 Inhibition by Strobilurin
Luminescence of vehicle control in ATP assay=704567
Luminescence of strobilurin treatment in ATP assay=678903
Normalization factor for strobilurin treatment=1.038
PGE2 quantitation for vehicle control=2458 pg/mL PGE2
PGE2 quantitation for strobilurin treatment=2347 pg/mL PGE2
Student's T-Test (equal variance, 2 sided) are used to calculate p-values between observed combinations and expected combinations with p-value <0.05 considered statistically significant. Expected combination values are calculated by adding the PGE2 inhibition values of strobilurins alone and salicylic acid alone. Synergy factor is simply the ratio of observed combination/expected combination. Synergy factors greater than 1.0 with a p-value <0.05 are deemed synergistic.

[2] = cited from earlier work
[3] = strobilurin alone, 1 × 10−5 w/v % (100:1), UVB
[4] = strobilurin alone, 1 × 10−6 w/v % (10:1), UVB
[5] = strobilurin alone, 1 × 10−7 w/v % (1:1), UVB
[6] = strobilurin alone, 1 × 10−7 w/v % (column 1:10), 15 mJ/cm2 UVB, 18-24 hours
[7] = strobilurin alone, 5 × 10−6 w/v % (50:1), UVB

Row | Compound | % PGE2 Inhibition [1, 3] [%] | % PGE2 Inhibition [1, 4] [%] | % PGE2 Inhibition [1, 5] [%] | % PGE2 Inhibition [1, 6] [%] | % PGE2 Inhibition [1, 7] [%] | solubility in water [2] | % PGE2 Inhibition ([1]; salicylic acid alone, 1 × 10−6 (column 1:10), UVB) | % PGE2 Inhibition ([1]; salicylic acid alone, 1 × 10−7 (1:1), UVB) | % PGE2 Inhibition ([1]; salicylic acid alone, 1 × 10−7 (10:1), UVB) | % PGE2 Inhibition ([1]; salicylic acid alone, 1 × 10−7 (50:1), UVB) | % PGE2 Inhibition ([1]; salicylic acid alone, 1 × 10−7 (100:1), UVB)
1 | CO/C=C(/C(=O)OC)c1ccccc1Oc1cc(Oc2ccccc2C#N)ncn1 [azoxystrobin] | 58 | 22 | 8 | 8 | 37 | low |  |  |  |  | 
2 | CNC(=O)/C(=N/OC)c1ccccc1COc1cc(C)ccc1C [dimoxystrobin] | 13 | 7 | 4 | 4 | 11 |  |  |  |  |  | 
3 | CO/N=C(/C1=NOCCO1)c1ccccc1Oc1ncnc(Oc2ccccc2Cl)c1F [fluoxastrobin] | 42 | 9 | 5 | 5 | 17 |  |  |  |  |  | 
4 | CO/N=C(/C(=O)OC)c1ccccc1COc1ccccc1C [kresoxim methyl] | 12 | 7 | 5 | 5 | 9 |  |  |  |  |  | 
5 | CNC(=O)/C(=N/OC)c1ccccc1CO/N=C(C)/C(=N/OC)C(/C)=N/OC [orysastrobin] | 36 | 12 | 6 | 6 | 18 |  |  |  |  |  | 
6 | CO/C=C(/C(=O)OC)c1ccccc1COc1cccc(C(F)(F)F)n1 [picoxystrobin] | 24 | 12 | 6 | 6 | 18 |  |  |  |  |  | 
7 | COC(=O)N(OC)c1ccccc1COc1ccn(-c2ccc(Cl)cc2)n1 [pyraclostrobin] | 70.4 | 46.0 | 30.4 | 30.4 | 55.3 |  |  |  |  |  | 
8 | O=C(O)c1ccccc1O [salicylic acid, reference compound] |  |  |  |  |  |  | 32% and 31.4% | 18% and 16.2% | 18% and 16.2% | 18% and 16.2% | 18% and 16.2%
9 | CON=C(C(=O)OC)c1ccccc1CON=C(C)c1cccc(C(F)(F)F)c1 [trifloxystrobin] | 8 | 7 | 5 | 5 | 8 |  |  |  |  |  | 
